This assay addresses T1, NUE (CT737), GST-NUE (Chlamydia trachomatis, UniProt O84742).
T1 construct: gene CT_737
The following applies: core histones or recombinant H2B, H3, H4 as acceptor, also automethylation; 50 mM Tris pH 8, 20 mM KCl, 10 mM MgCl2, 1 mM DTT, 30 °C, 1 h; labelled compound.

T1 sequence (O84742 entry or part of it): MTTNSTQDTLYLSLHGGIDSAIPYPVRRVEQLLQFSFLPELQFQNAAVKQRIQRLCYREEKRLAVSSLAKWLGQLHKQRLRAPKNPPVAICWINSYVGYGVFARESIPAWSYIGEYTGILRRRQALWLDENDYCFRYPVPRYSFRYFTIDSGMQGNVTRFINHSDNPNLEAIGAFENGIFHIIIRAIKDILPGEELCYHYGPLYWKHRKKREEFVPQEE

For `C[S+](CC[C@H](N)C(=O)O)C[C@H]1O[C@@H](n2cnc3c(N)ncnc32)[C@H](O)[C@@H]1O` (stereo partly drawn) [SAM, S-adenosyl-L-methionine], the “in vitro methyltransferase assay, 14C autoradiography of SDS-PAGE” value was “in vitro methyltransferase assays using GST-NUE purified from E. coli and mammalian histones”.

These data come from PMC2904774 (PLoS Pathogens, 2010).
